Laboratory results reported in patent publication US20200339691A1, “PROTEINACEOUS MOLECULES AND USES THEREFOR” (priority 2018, published 2020).
Where a SMILES comes first, the peptide text is derived from it. The star is where a group is joined. Myristoyl = CCCCCCCCCCCCCC(=O)*

Experiments:
[1] = test system: acetylated PD-L1 and p300; test: Colocalization (PCC(r)) of acetylated PD-L1 and p300 in MDA-MB-231 cells; assay type: cell-based, human; conditions: 50 μm
Protocol: The effect of P1, P2, P3 and P4 (synthesized in accordance with Example 5) on p300 localization was examined using confocal laser scanning microscopy. […] Cover slips were mounted on glass microscope slides with ProLong Diamond Antifade reagent (Life Technologies). Protein targets were localized by confocal laser scanning microscopy as described above. TNFI and PCC(r) were calculated using ImageJ software as previously described.

SETDB1 = test: Immunofluorescence of SETDB1 in MDA-MB-231 cells; assay type: cell-based, human; conditions: 50 μM, 72 hours
Protocol: (§1) Cells were treated with 50 μM P1, P2, P3 or P4 (synthesized in accordance with Example 5) or vehicle (water) for 72 hours. […] Confocal laser scanning microscopy was used to measure the […] and TCFI as described above. At least 20 individual cells were analyzed per sample.

PD-1 = test: Immunofluorescence of PD-1 in Jurkat T-cells; assay type: cell-based; conditions: 50 μM, 72 hours, relative to the control
Protocol: 1×10^4 Jurkat T-cells were seeded onto coverslips in 12 well plates with DMEM media. Cells were treated with 50 μM P1, P2, P3 (synthesized in accordance with Example 5) or vehicle (water) for 72 hours. Cells were fixed with 3.7% formaldehyde and permeabilized with 2% Triton-X-100, then probed with a primary mouse antibody to PD-1 directly conjugated to Alexa-Fluor 647. Confocal laser scanning microscopy was used to measure the TNFI, TCFI and Fn/c as described above. At least 20 individual cells were analyzed per sample.

MDA-MB-231 cells [2] = conditions: 72 h
Protocol: The effect of P1, P2 and P3 (synthesized in accordance with Example 5) on MDA-MB-231 cell proliferation was assessed using a WST-1 proliferation assay.
MCF7 cells were transfected with a plasmid containing the wild-type PD-L1 sequence, a plasmid containing a PD-L1 [K263Q] mutant (Mut1) or vector only (VO) using the NEON electroporation transfection system (Life Technologies). Transfected cells were used for the colorimetric based WTS-1 proliferation assay (Sigma-Aldrich) to examine the effect of transfection on MCF7 cell proliferation. The WTS-1 proliferation assay was also used to determine the effect of treatment with P1, P2 and P3 (synthesized in accordance with Example 5) on MDA-MB-231 cell proliferation. The stable tetrazolium salt WST-1 is cleaved to a soluble formazan by a complex cellular mechanism that occurs primarily at the cell surface. This bioreduction is largely dependent on the glycolytic production of NAD(P)H in viable cells. Therefore, the amount of formazan dye formed directly correlates to the number of metabolically active cells in the culture. Cells grown in a 96-well tissue culture plate were treated with vehicle only or 6.25, 12.5, 25, 50, 100, 200 or 400 μM of P1, P2 or P3 for 72 hours at 37° C. in a humidified CO2 incubator. Cells were then incubated with the WST-1 reagent for 0.5-4 hours. Following incubation, the formazan dye formed is quantitated with a scanning multi-well spectrophotometer (ELISA reader). The measured absorbance directly correlates to the number of viable cells.

EGFR = test: Immunofluorescence of EGFR in MDA-MB-231 cells; assay type: cell-based, human; conditions: 50 μM, 72 hours
Protocol: (§2) 1×10^4 MDA-MB-231 cells were seeded onto coverslips in 12 well plates with DMEM media. Cells were treated with 50 μM P1, P2, P3 or P4 (synthesized in accordance with Example 5) or vehicle (water) for 72 hours. Cells were fixed with 3.7% formaldehyde and permeabilized with 2% Triton-X-100, then probed with primary mouse antibodies to CSV, DMNT1, H3K9me3 or 5-methylcytosine; primary goat antibodies to SNAI1, SETDB1 or ABCB5; or primary rabbit antibodies to PD-L1, EGFR, EHMT2; followed by the corresponding secondary antibody conjugated to anti-mouse Alexa-Fluor 568, anti-goat Alexa-Fluor 633 or anti-rabbit Alexa-Fluor 488. Confocal laser scanning microscopy was used to measure the TFI, TNFI and TCFI as described above. At least 20 individual cells were analyzed per sample.

MDA-MB-231 cells [3] = assay type: cell-based, human; conditions: 50 μM peptide, 48 hours, n = 1
From the text: Non-adherent cells were removed during the washing steps.

DMNTI = test: Immunofluorescence of DMNTI in MDA-MB-231 cells; assay type: cell-based, human; conditions: 50 μM, 72 hours
Protocol: as §1

[4] = test system: CD44^hiCD24^lo CSCs in MCF7 cells; test: FACS analysis of CD44^hiCD24^lo CSCs in MCF7 cells; assay type: cell-based, human; conditions: 50 μM peptide, 48 hours
Protocol: P1 Analogues were synthesized in accordance with the procedure of Example 5. 4×10^4 MDA-MB-231 cells or 1×10^4 induced or non-induced MCF7 cells were seeded in a 12 well plate with 1 mL complete media overnight. Induced MCF7 cells were prepared by stimulating cells with PMA/TGF-β and incubating for 12 hours. Cells were treated with 50 μM test peptide (dissolved in water) for 48 hours. Cells were then washed twice with 1 mL PBS and harvested by trypsinisation. Non-adherent cells were removed during the washing steps. Adherent cells were collected, and were subsequently stained with anti-human CD44, CD24 and Hoechst 33342 antibodies on ice for 30 mins. FACS was performed on BD FACS LSRII to measure the percentage of CD44^hiCD24^lo CSCs by dividing CD44^hiCD24^lo events by total live cell counts (Hoechst negative population) (as described in Fillmore and Kuperwasser (2007) Breast Cancer Res, 9: 303). The percentage of viable cells was calculated by dividing total live cell events by total single cells as described previously (Siemann and Keng (1986), Cancer Res, 46: 3556-3559).

[5] = test system: cell surface vimentin (CSV); test: Immunofluorescence of CSV in MDA-MB-231 cells, Example 14; assay type: cell-based, human; conditions: 50 μM, 72 hours
Protocol: 1×10^4 MDA-MB-231 cells were treated with 50 μM P1, P2, P3 (synthesized in accordance with Example 5) or vehicle (water) for 72 hours. Cells were fixed with 3.7% formaldehyde and permeabilized with 2% Triton-X-100, then probed with a primary rabbit antibody to PD-L2, primary goat antibody to PD-L1 and primary mouse antibody to CSV, followed by the corresponding secondary antibody conjugated to anti-mouse Alexa-Fluor 568, anti-goat Alexa-Fluor 633 or anti-rabbit Alexa-Fluor 488. Confocal laser scanning microscopy was used to measure the TNFI and TCFI as described above. At least 20 individual cells were analyzed per sample.

SNAI1 = test: Immunofluorescence of SNAI1 in MDA-MB-231 cells; assay type: cell-based, human; conditions: 50 μM, 72 hours
Protocol: as §2

PD-L1 = test: Immunofluorescence of PD-L1 in MDA-MB-231 cells, Example 9; assay type: cell-based, human; conditions: 50 μM, 72 hours
Protocol: as §2

EHTM2 = test: Immunofluorescence of EHTM2 in MDA-MB-231 cells; assay type: cell-based, human; conditions: 50 μM, 72 hours
Protocol: as §1
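For COI, Live Single Cells (Cell Count) in this document: live means Hoechst-negative events among single cells.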

SMILES	colocalization of acetylated PD-L1 and p300 [1]	expression / nuclear localization of SETDB1 (SETDB1)	PD-1 nuclear localization (PD-1)	IC50 (MDA-MB-231 cells [2]) [µM]	expression of EGFR (EGFR)	COI (Cell Count) (MDA-MB-231 cells [3])	COI, Live Single Cells (Cell Count) (MDA-MB-231 cells [3])	COI, Single (Cell Count) (MDA-MB-231 cells [3])	Total Cell Count (MDA-MB-231 cells [3])	Viable Cells (%) (MDA-MB-231 cells [3])	expression / nuclear localization of DMNTI (DMNTI)	CD44^hiCD24^lo CSC % [4] [%]	COI/Single Cells/Live/CD44^hiCD24^lo CSCs Count [4]	CSV expression [5]	expression of SNAI1 (SNAI1)	PD-L1 nuclear localization (PD-L1)	expression / localization of EHTM2 (EHTM2)
CCCCCCCCCCCCCC(=O)N[C@@H](CC(C)C)C(=O)N[C@H](C(=O)N[C@@H](Cc1ccccc1)C(=O)N[C@H](C(=O)N[C@@H](Cc1ccccc1)C(=O)N[C@@H](CCCNC(=N)N)C(=O)N[C@@H](CC(C)C)C(=O)N[C@@H](CCCNC(=N)N)C(=O)N[C@@H](CCCCNC(C)=O)C(=O)NCC(=O)N[C@@H](CCCNC(=N)N)C(=O)N[C@@H](CCSC)C(=O)N[C@@H](CCSC)C(=O)N[C@@H](CC(=O)O)C(=O)N[C@H](C(=O)N[C@@H](CCCCN)C(=O)N[C@@H](CCCCN)C(N)=O)C(C)C)[C@@H](C)CC)[C@@H](C)O [Peptide P3, Myristoyl-LTFIFRLRK(Ac)GRMMDVKK-NH2] (Myristoyl-LTFIFRLRK(Ac)GRMMDVKK-NH2)	significantly decreased	significantly abrogated	significantly inhibited	542	uniformly inhibited	6874	5099	5237	20311	97.36	significantly abrogated	3.26	162	significantly inhibited	uniformly inhibited	significantly inhibited	significantly abrogated
CCCCCCCCCCCCCC(=O)N[C@@H](CC(C)C)C(=O)N[C@H](C(=O)N[C@@H](Cc1ccccc1)C(=O)N[C@H](C(=O)N[C@@H](Cc1ccccc1)C(=O)N[C@@H](CCCNC(=N)N)C(=O)N[C@@H](CC(C)C)C(=O)N[C@@H](CCCNC(=N)N)C(=O)N[C@@H](CCCCN)C(=O)NCC(=O)N[C@@H](CCCNC(=N)N)C(=O)N[C@@H](CCSC)C(=O)N[C@@H](CCSC)C(=O)N[C@@H](CC(=O)O)C(=O)N[C@H](C(=O)N[C@@H](CCCCN)C(=O)N[C@@H](CCCCN)C(N)=O)C(C)C)[C@@H](C)CC)[C@@H](C)O [Peptide P1, Myristoyl-LTFIFRLRKGRMMDVKK-NH2] (Myristoyl-LTFIFRLRKGRMMDVKK-NH2)	significantly decreased	significantly abrogated	significantly inhibited	103	uniformly inhibited	2038	1395	1523	4339	91.60	significantly abrogated	4.36	233	significantly inhibited	uniformly inhibited	significantly inhibited	significantly abrogated
CCCCCCCCCCCCCC(=O)N[C@@H](CC(C)C)C(=O)N[C@H](C(=O)N[C@@H](Cc1ccccc1)C(=O)N[C@H](C(=O)N[C@@H](Cc1ccccc1)C(=O)N[C@@H](CCCNC(=N)N)C(=O)N[C@@H](CC(C)C)C(=O)N[C@@H](CCCNC(=N)N)C(=O)N[C@@H](CCC(N)=O)C(=O)NCC(=O)N[C@@H](CCCNC(=N)N)C(=O)N[C@@H](CCSC)C(=O)N[C@@H](CCSC)C(=O)N[C@@H](CC(=O)O)C(=O)N[C@H](C(=O)N[C@@H](CCCCN)C(=O)N[C@@H](CCCCN)C(N)=O)C(C)C)[C@@H](C)CC)[C@@H](C)O [Peptide P2, Myristoyl-LTFIFRLRQGRMMDVKK-NH2] (Myristoyl-LTFIFRLRQGRMMDVKK-NH2)	significantly decreased	significantly abrogated	significantly inhibited	564	uniformly inhibited	6317	4402	4580	12706	96.11	significantly abrogated	2.82	123	significantly inhibited	uniformly inhibited	significantly inhibited	significantly abrogated
